Source: US6344351B2, “(R)-transaminase from arthrobacter” (Kaneka Corporation, priority 1995, dated 2002)
Read-outs that look alike come from different tables or passages of the source.

Experiments:
[1] = system: (R)-form-specific transaminase of Arthrobacter sp. KNK168; experiment: Influence of reaction inhibitors on purified transaminase of present invention; assay type: biochemical; details: for Transaminase of Present Invention (Relative Activity: %) with inhibitor: inhibitor 1 mM, without addition = 100
Excerpt: (§1) The differences with the ω-amino acid transaminase derived from Pseudomonas sp. F-1 (Agric. Biol. Chem., 42, 2363-2367 (1978), Agric. Biol. Chem., 43, 1043-1048 (1979), J. Biol. Chem., 258, 2260-2265 (1983)) which have been well studied among the ω-amino acid transaminases, and with the benzylamine transaminase of Okada et al. (Japanese Patent Laid-Open No. Hei 6-178685) are summarized and shown in Table 2. In a case of the transaminase action in the present invention, the data of the purified enzyme are used, and in cases of those by other two enzymes, the data of the purified enzymes which are disclosed in each of the literature publication and patent publication are used. Pyruvic acid is used as an amino acceptor in all cases.

[2] = system: benzylamine transaminase of Okada et al.; details: without addition = 100, cited from earlier work
[3] = biological target: T1, ω-amino acid transaminase derived from Pseudomonas sp. F-1 (Pseudomonas putida, UniProt P28269); details: inhibitor 1 mM; without addition = 100; cited from earlier work
T1 sequence (P28269 1-449): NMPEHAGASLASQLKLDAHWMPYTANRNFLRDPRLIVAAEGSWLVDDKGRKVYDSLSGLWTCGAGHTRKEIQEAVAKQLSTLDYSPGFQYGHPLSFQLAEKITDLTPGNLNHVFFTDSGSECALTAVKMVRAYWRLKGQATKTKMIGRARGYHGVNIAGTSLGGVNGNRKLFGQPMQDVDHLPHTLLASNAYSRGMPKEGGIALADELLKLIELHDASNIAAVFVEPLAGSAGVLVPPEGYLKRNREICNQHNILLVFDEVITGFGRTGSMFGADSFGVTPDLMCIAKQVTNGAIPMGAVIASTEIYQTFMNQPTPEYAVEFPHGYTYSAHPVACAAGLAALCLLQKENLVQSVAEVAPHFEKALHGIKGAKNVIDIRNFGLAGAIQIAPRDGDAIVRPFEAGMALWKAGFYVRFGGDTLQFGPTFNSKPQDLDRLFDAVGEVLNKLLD

[4] = system: benzylamine transaminase of Okada et al.; parameters: Transaminase of Okada et al. (Relative Activity: %), Substrate Specificity: concentration or dose not given beside the values; details: cited from earlier work; for Transaminase of Okada et al. (Relative Activity: %), Substrate Specificity: purified enzyme, patent publication data, pyruvic acid as amino acceptor
[5] = system: (R)-form-specific transaminase of Arthrobacter sp. KNK168; experiment: Reactivity of purified transaminase of present invention to amino compounds, pyruvic acid as amino acceptor; assay type: biochemical; parameters: Transaminase of Present Invention (Relative Activity: %), Substrate Specificity: concentration or dose not given beside the values; details: for Transaminase of Present Invention (Relative Activity: %), Substrate Specificity: pyruvic acid as amino acceptor
Excerpt: as §1
Using the purified enzyme obtained in Example 9, reactivities to various amino compounds when using pyruvic acid as an amino acceptor were evaluated. 150 μl of a solution of the purified enzyme diluted ten-folds was added to 150 μl of a substrate solution (0.1 M potassium phosphate buffer (pH 8.3), 40 mM pyruvic acid, 0.1 mM pyridoxal phosphate, and 40 mM various amino compounds). The components were reacted at 30° C. for 1 hour. The reaction tube was transferred into boiling water to stop the reaction, and, thereafter, a part of the reaction mixture was diluted five-folds. Ten μl of 0.1 M boric acid buffer (pH 8.0) and 20 μl of an ethanol solution of 80 mM of 4-fluoro-7-nitro-2,1,3-benzoxadiazole (NBD-F) were added to 10 μl of the above-mentioned diluted reaction mixture. The components were reacted at 60° C. for 1 minute, and, thereafter, the reaction mixture was ice-cooled, and 460 μl of 5 mM HCl was added thereto. This reaction mixture was analyzed by high-performance liquid chromatography using fine pack C18-5 column and using a 0.1 M potassium phosphate buffer (pH 6.5) and CH3CN (90:10) as an eluent solution to detect formation of alanine-NBD using excitation wavelength of 470 nm and using detection wave of […]. The results thereof are shown in Table 8 in terms of relative activity in the case of using […] as a substrate.

[6] = biological target: T1, ω-amino acid transaminase derived from Pseudomonas sp. F-1; parameters: concentration or dose not given beside the values; details: purified enzyme, literature data; pyruvic acid as amino acceptor; cited from earlier work
[7] = system: transaminase (intracellular enzyme) of Arthrobacter sp. KNK168; experiment: Activity of the transaminase (intracellular enzyme) against typical substrates of ω-aminotransferases; assay type: biochemical
[8] = system: Arthrobacter species KNK168 strain; experiment: Inducer added to culture medium; (R)-DMA formation by the separated cells; assay type: cell-based; details: cells reacted 30° C., 20 hours, 1% 1-(3,4-dimethoxyphenyl)-2-propanone, 1% (RS)-1-methylpropylamine
Protocol: When culturing the Arthrobacter species KNK168 strain by the method described in Example 1, (RS)-1-methylpropylamine, (RS)-1-methylbutylamine, (RS)-3-amino-2,2-dimethylbutane, (RS)-2-amino-1-butanol, or (RS)-1-phenylethylamine was added to the medium in place of (R)-1-(3,4-dimethoxyphenyl)-2-aminopropane ((R)-DMA). The cells were separated from the medium, and the reaction was carried out at 30° C. for 20 hours using the above cells in a reaction mixture containing 1% of 1-(3,4-dimethoxyphenyl)-2-propanone and 1% of (RS)-1-methylpropylamine.

[9] = system: Arthrobacter species KNK168 strain; experiment: Resolution of racemic 2-amino-1-methoxypropane by cells with aldehyde amino acceptors; assay type: cell-based; details: 150 mM aldehyde as amino acceptor, 200 mM racemic 2-amino-1-methoxypropane, 30° C., 20 hours
Protocol: The Arthrobacter species KNK168 strain was cultured in the same manner as in Example 13, and the cells were separated from 1 ml of the culture. The cells were suspended in 1 ml of a reaction mixture containing a 0.1 M Tris-hydrochloric acid buffer (pH 8.5), 50 mg of racemic 2-amino-1-methoxypropane, 37.5 mg of pyruvic acid, and 0.1% of sodium dodecyl sulfate. The components were reacted at 30° C. for 24 hours with stirring. As a result of the analysis after the reaction, 23.4 mg of 2-amino-1-methoxypropane remained, and its optical purity was 95% ee ((S)-form).
By carrying out the same reaction as in Example 14 using 200 mM racemic 2-amino-1-methoxypropane, and 150 mM n-butylaldehyde or propionaldehyde, the components were reacted at 30° C. for 20 hours. As a result of the analysis thereof, the (S)-form of 2-amino-1-methoxypropane was concentrated, and the ratio of the (S)-form was 76% in a case of using n-butylaldehyde, and 58% in a case of using propionaldehyde.

[10] = system: Arthrobacter species KNK168 strain; experiment: Amino donor test; (R)-DMA formation by cultured cells; assay type: cell-based
Protocol: The cultured cells were harvested by centrifugation, and the harvested cells were suspended in a reaction mixture (pH 8.5) containing 1% of 1-(3,4-dimethoxyphenyl)-2-propanone, […] of Triton X-100, and 1% of an amino donor shown in Table 2. The components were reacted at 35° C. for 20 hours.

[11] = system: transaminase derived from Arthrobacter; experiment: Usability as amino group donor, transaminase of present invention; assay type: biochemical; details: +/− without printed key, or words
Excerpt: Further, the transaminase derived from Arthrobacter which can be used in the present invention is different from the above-mentioned enzyme derived from Brevibacterium in many other aspects.

SMILES: NO [Hydroxylamine]
- influence of reaction inhibitor on the transaminase derived from Arthrobacter [1]: affected only a little
- Transaminase of Present Invention (Relative Activity: %) with inhibitor [1]: 17%
- Transaminase of Okada et al. (Relative Activity: %) with inhibitor ([2]; inhibitor 0.1 mM): 30%
- ω-Amino Acid Transaminase (Relative Activity: %) with inhibitor [3]: 0%

SMILES: NCCC(=O)O [β-Alanine]
- Transaminase of Okada et al. (Relative Activity: %), Substrate Specificity [4]: 0%
- action of the transaminase derived from Arthrobacter on the substrate [5]: does not act
- Transaminase of Present Invention (Relative Activity: %), Substrate Specificity ([5]; purified enzyme): 0%
- ω-Amino Acid Transaminase (Relative Activity: %), Substrate Specificity [6]: 100%
- activity of the transferase to amino donor [7]: does not act
- Relative Activity (%) as amino donor ([7]; amino acceptor pyruvic acid, (R)-1-phenylethylamine control = 100): 0%

SMILES: COc1ccc(C[C@@H](C)N)cc1OC [(R)-DMA, (R)-1-(3,4-dimethoxyphenyl)-2-aminopropane]
- (R)-DMA Formed (%), inducer in culture medium [8]: 0.9%

SMILES: O=S(=O)([O-])[O-].[Cu+2] [CuSO4]
- Transaminase of Present Invention (Relative Activity: %) with inhibitor [1]: 44%
- Transaminase of Okada et al. (Relative Activity: %) with inhibitor ([2]; inhibitor 0.5 mM): 5%

SMILES: CCC=O [propionaldehyde]
- ratio of the (S)-form of 2-amino-1-methoxypropane [9]: 58%

SMILES: CC(N)C(C)(C)C (racemic) [(RS)-3-Amino-2,2-dimethylbutane]
- (R)-DMA Formed (%), inducer in culture medium [8]: 18.6%

SMILES: CC(N)c1ccccc1 (racemic) [(RS)-1-Phenylethylamine]
- function as amino donor [10]: most highly preferable
- (R)-DMA Formed (%), inducer in culture medium [8]: 8.0%

SMILES: O=C(O)c1cc[c]([Hg][Cl])cc1 [p-Chloromercuribenzoic acid]
- Transaminase of Present Invention (Relative Activity: %) with inhibitor [1]: 53%
- Transaminase of Okada et al. (Relative Activity: %) with inhibitor ([2]; inhibitor 0.1 mM): 9%
- ω-Amino Acid Transaminase (Relative Activity: %) with inhibitor [3]: 100%

SMILES: CCCC=O [n-butylaldehyde]
- ratio of the (S)-form of 2-amino-1-methoxypropane [9]: 76%

SMILES: NC1C=CC=C(C(=O)O)C1 (racemic) [Gabaculine]
- Transaminase of Present Invention (Relative Activity: %) with inhibitor [1]: 24%
- ω-Amino Acid Transaminase (Relative Activity: %) with inhibitor [3]: 0%

SMILES: CCCCN [n-Butylamine]
- Transaminase of Okada et al. (Relative Activity: %), Substrate Specificity [4]: 0%
- action of the transaminase derived from Arthrobacter on the substrate [5]: does not act
- Transaminase of Present Invention (Relative Activity: %), Substrate Specificity ([5]; purified enzyme): 0%
- ω-Amino Acid Transaminase (Relative Activity: %), Substrate Specificity [6]: 60%

SMILES: CCC(C)N (racemic) [(RS)-1-Methylpropylamine]
- function as amino donor [10]: functioned as amino donors
- (R)-DMA Formed (%), amino group donor ([10]; 1% amino donor, 1% 1-(3,4-dimethoxyphenyl)-2-propanone, Triton X-100, pH 8.5, 35° C., 20 hours): 28.2%
- (R)-DMA Formed (%), inducer in culture medium [8]: 22.3%

SMILES: NCCCCN [Putrescine]
- Transaminase of Okada et al. (Relative Activity: %), Substrate Specificity [4]: 0%
- action of the transaminase derived from Arthrobacter on the substrate [5]: does not act
- Transaminase of Present Invention (Relative Activity: %), Substrate Specificity ([5]; purified enzyme): 0%
- ω-Amino Acid Transaminase (Relative Activity: %), Substrate Specificity [6]: 55%
- Relative Activity (%) as amino donor ([7]; amino acceptor 2-ketoglutaric acid, (R)-1-phenylethylamine/pyruvic acid control = 100): 0%

SMILES: NNc1ccccc1 [Phenylhydrazine]
- influence of reaction inhibitor on the transaminase derived from Arthrobacter [1]: affected only a little
- Transaminase of Present Invention (Relative Activity: %) with inhibitor [1]: 82%
- Transaminase of Okada et al. (Relative Activity: %) with inhibitor ([2]; inhibitor 1 mM): 27%
- ω-Amino Acid Transaminase (Relative Activity: %) with inhibitor [3]: 6%

SMILES: NCCc1ccccc1 [β-Phenethylamine]
- Transaminase of Okada et al. (Relative Activity: %), Substrate Specificity [4]: 9%
- Transaminase of Present Invention (Relative Activity: %), Substrate Specificity ([5]; purified enzyme): 0%
- ω-Amino Acid Transaminase (Relative Activity: %), Substrate Specificity [6]: 54%

SMILES: NCc1ccccc1 [Benzylamine]
- action of benzylamine transaminase on substrate ([4]; in the presence of pyruvic acid): strongly acts
- Transaminase of Okada et al. (Relative Activity: %), Substrate Specificity [4]: 100%
- Relative Activity (%) of amino compounds ([5]; purified enzyme, 40 mM amino compound in substrate solution, 40 mM pyruvic acid, pH 8.3, 30° C., 1 hour, (R)-1-phenylethylamine = 100): 0.8%
- Transaminase of Present Invention (Relative Activity: %), Substrate Specificity ([5]; purified enzyme): 0.8%
- ω-Amino Acid Transaminase (Relative Activity: %), Substrate Specificity [6]: 45%

SMILES: Cl.N [ammonium chloride]
- Amino Group Donor, Transaminase of Present Invention [11]: cannot be used as an amino donor

SMILES: N[C@@H](CC(=O)O)C(=O)O [aspartic acid]
- Amino Group Donor, Transaminase of Present Invention [11]: cannot be used as an amino donor

SMILES: CCCC(C)N (racemic) [(RS)-1-Methylbutylamine]
- function as amino donor [10]: functioned as amino donors
- (R)-DMA Formed (%), inducer in culture medium [8]: 13.0%

SMILES: CCC(N)CO (racemic) [(RS)-2-Amino-1-butanol]
- (R)-DMA Formed (%), inducer in culture medium [8]: 12.9%

SMILES: N[C@@H](CCC(=O)O)C(=O)O [glutamic acid]
- Amino Group Donor, Transaminase of Present Invention [11]: cannot be used as an amino donor
